{"source": "patent US20230392180A1", "about": "“MICROSCOPIC IMAGING AND ANALYSES OF EPIGENETIC LANDSCAPE” (Sanford Burnham Prebys Medical Discovery Institute, priority 2020, published 2023)", "key": {"[1]": {"system": "primary mouse hepatocytes", "assay": "MIEL-Rejuvenation in primary old hepatocytes", "type": "cell-based, mice", "settings": "for outcome in high throughput screening using primary mouse hepatocytes (miBioAge): figure legends FIG. 63-65; for shift of epigenetic signature of old cells towards that of young cells: old hepatocytes", "source_text": "To meet this challenge, techniques described herein were employed to analyze the effects of various drugs on the analysis of epigenome topography at the single cell level. Because of large numbers of cells required for drug screening, mice were used as a source of (C57BLACK/6) of liver hepatocytes (˜98% pure in the preparations) for probing whether epigenetic signature of aging is retained after short-term cultures of hepatocytes. […] The ability of hepatocytes to maintain age-related epigenetic or multiparametric signatures in cell culture conditions provides the foundation for high throughput screening.\nThese high content screenings using MIEL pipeline were conducted to adapt these assay conditions. Briefly, on day 0, 10,000 primary mouse hepatocytes per well were seeded in 384 well plates. Hepatocytes were isolated via a 2-step perfusion method yielding ˜98% pure population of primary hepatocytes. At 24 hrs after seeding, compounds were added in DMSO. Primary mouse hepatocytes were determined to tolerate DMSO concentrations of at least 0.1% (v/v) without adverse effects on cell growth or viability over 5 days (compared to no DMSO control). Using the Echo acoustic compound dispensing system and 10 mM stock concentration library plates, each of the drugs at concentrations up to 10 μM was sufficiently delivered. At 4 days after seeding, cells were fixed and immunolabeled with antibody to H3K9me3, H3K27me3, and H4K20me3 (initially in separate wells) to determine the efficiency of each individual mark and potential for synergy."}, "GBM2 cells [2]": {"system": "GBM2 cells", "assay": "Immunofluorescence of core TPC transcription factors and Ki67 in drug-treated cells", "type": "cell-based, human", "settings": "for Sox2 expression: GBM2, 3 days treatment, Digitoxigenin 0.3 μM; for expression of the core transcription factors: GBM2, compared with serum and Bmp4; for Sall2 and Brn2 expression: GBM2, immunofluorescence", "procedure": "Cell staining: Cells were rinsed with PBS and fixed in 4% paraformaldehyde in PBS for 10 min at room temperature. After blocking with PBSAT (2% BSA and 0.5% Triton X-100 in PBS) for 1 h at room temperature, the cells were incubated overnight at 4° C. with primary antibodies diluted in PBSAT. The primary antibodies are listed in Table 2, and the appropriate fluorochrome-conjugated secondary antibodies were used at 1:500 dilution. Nuclear co-staining was performed by incubating cells with Hoechst-33342 nuclear dye.\nMicroscopy and image analysis: Unless stated otherwise, for MIEL analysis cells were imaged on an Opera QEHS high-content screening system (PerkinElmer) using ×40 water immersion objectives. Images collected on the Opera were analyzed using Acapella 2.6 (PerkinElmer). At least 40 fields per well were acquired and at least 2 wells per population were used. Features of nuclear morphology, fluorescence intensity inter-channel co-localization, and texture features (Image moments, Haralick, Threshold Adjacency Statistics) were calculated using custom algorithms (scripts available from www.andrewslab.ca). A full list of the features used is available from the authors. Values for each cell were generated and exported to MATLAB for further analysis. For Sall2, Olig2, Brn2, Sox2, Oct4 and GFAP immunostaining, images were captured on an IC200-KIC (Vala Sciences) using a ×20 objective. Between 3 and 8 fields per well were acquired and analyzed using Acapella 2.6 (PerkinElmer). For all nuclear markers, average intensities in nucleus or fold change in average intensity compared to untreated cells are shown. Unless stated otherwise, at least 3 wells and a minimum of 300 cells for each condition were compared using unpaired two-tailed t-test was.\nMicroscopy and image analysis: For MIEL analysis, cells were imaged on either an Opera QEHS high-content screening system (PerkinElmer) using ×40 water immersion objectives or an IC200-KIC (Vala Sciences) using a ×20 objective. Images collected were analyzed using Acapella 2.6 (PerkinElmer). At least 40 fields/well for Opera and 5 fields/well for IC200 were acquired and at least 2 wells per population were used. Features of nuclear morphology, fluorescence intensity inter-channel co-localization, and texture features (Image moments, Haralick, Threshold Adjacency Statistics) were calculated using custom algorithms. A full list of the features used is available from the authors. Values for each cell were generated and exported to Microsoft Excel or MATLAB for further analysis. For Sall2, Olig2, Brn2, Sox2, Oct4, and GFAP immunostaining, images were captured on an IC200-KIC (Vala Sciences) using a ×20 objective. Between 3 and 8 fields per well were acquired and analyzed using Acapella 2.6 (PerkinElmer). For all nuclear markers, average intensities in nucleus or fold change compared to untreated cells are shown. Unless stated otherwise, at least 3 wells and a minimum of 300 cells for each condition were compared using the unpaired two-tailed t-test."}, "GBM2 cells [3]": {"system": "GBM2 cells", "assay": "RNAseq and transcriptomic analysis", "type": "cell-based, human", "settings": "for gene expression changes (GO terms) compared with those induced by serum or BMP4 / ranking by average Euclidean distance from serum- or Bmp4-treated cells (MIEL- and gene expression-based): GBM2, 3 days; for Euclidean distance (FPKM, all expressed genes) of treated cells to serum or Bmp4 treated cells: GBM2 TPCs; for ranking by average Euclidean distance from serum- or Bmp4-treated cells (MIEL- and gene expression-based): 8 candidate compounds", "procedure": "RNAseq and transcriptomic analysis: Total RNA was isolated from GBM2 cells using the RNeasy Kit (Qiagen), 0.5 ug total RNA was used for isolation of mRNAs and library preparation. Library preparation and sequencing was conducted by the SBP genomics core (Sanford-Burnham NCI Cancer Center Support Grant P30 CA030199). PolyA RNA was isolated using the NEBNext® Poly(A) mRNA Magnetic Isolation Module and barcoded libraries were made using the NEBNext® Ultra II™ Directional RNA Library Prep Kit for Illumina® (NEB, Ipswich MA). Libraries were pooled and single end sequenced (1X75) on the Illumina NextSeq 500 using the High output V2 kit (Illumina). Read data was processed in BaseSpace. Reads were aligned to Homo sapiens genome (hg19) using STAR aligner with default settings. Differential transcript expression was determined using the Cufflinks Cuffdiff package. Go term enrichment analysis was conducted using PANTHER v11 using all genes identified as differentially expressed following either serum or Bmp4 treatment. For heat maps showing fold change in expression the FPKM values in each population were divided by the average FPKM values of untreated GBM2. To highlight differences in expression levels between serum and Bmp4 treated GBM2 cells the FPKM values in each sample were z-scored. Zscore=(FPKMObservation−FPKMAverage)/FPKMSD (FPKMObservation−FPKM value obtain through sequencing; FPKMAverage−average of all FPKM values in all samples for a certain gene; FPKMSD−standard deviation of FPKM values for a certain gene). Heat maps were generated using Microsoft Excel conditional formatting function.\nCorrelation of transcriptomic and image-based profiles: Euclidean distance between untreated, serum or Bmp4 treated GBM2 cells (triplicates for each) was calculated using either transcriptomic data (FPKM) or texture features. Pearson's correlation coefficient (R) was transformed to a t-value using the formula (t=R×SQRT(N−2)/SQRT(1−R2) where N is the number of samples, and R is Pearson correlation coefficient, and the p-value was calculated using Excel tdist(t) function. For compound prioritization, the Euclidean distance between compound treated and serum or Bmp4 treated GBM2 cells was calculated based on either transcriptomic data (FPKM) or image features. The average distance to both serum and Bmp4 treatments was normalized to the average distance of untreated cells to serum and Bmp4.\nRNAseq and transcriptomic analysis: Total RNA was isolated from GBM2 cells using the RNeasy Kit (Qiagen), 0.25 μg total RNA was used to isolate mRNAs and for library preparation. Library preparation and sequencing were conducted by the SBP genomics core (Sanford-Burnham NCI Cancer Center Support Grant P30 CA030199). PolyA RNA was isolated using the NEBNext® Poly(A) mRNA Magnetic Isolation Module, and barcoded libraries were made using the NEBNext® Ultra II™ Directional RNA Library Prep Kit for Illumina® (NEB, Ipswich MA). Libraries were pooled and single-end sequenced (1×75) on the Illumina NextSeq 500 using the High-Output V2 kit (Illumina). Read data, processed in BaseSpace, were aligned to Homo sapiens genome (hg19) using STAR aligner with default settings. Differential transcript expression was determined using the Cufflinks Cuffdiff package. For heat maps showing fold change in expression, FPKM values in each HDACi-treated population were divided by the average FPKM values of DMSO-treated GBM2 and values shown as log 2 of the ratio. Go enrichment analysis was conducted using PANTHER v11 using all genes identified as differentially expressed following either serum or Bmp4 treatment. To highlight differences in expression levels between serum- and Bmp4-treated GBM2 cells, FPKM values in each sample were z-scored. Zscore=(FPKMObservation−FPKMAverage)/FPKMSD (FPKMObservation−FPKM value obtain through sequencing; FPKMAverage−average of all FPKM values in all samples for a certain gene; FPKMSD−standard deviation of FPKM values for a certain gene). […]"}, "TPCs": {"system": "TPCs", "assay": "Growth rate of treated glioblastoma cells", "settings": "GBM2, 3 days, compared with serum/Bmp4 treatment"}}, "note": "“Also recorded” adds a separate entry of the source.", "data": [{"smiles": "NC(=O)c1ccc[n+]([C@@H]2O[C@H](COP(=O)([O-])O)[C@@H](O)[C@H]2O)c1", "note": "[Nicotiamide mononucleotide, Nicotinamide mononucleotide]", "values": [{"measurement": "outcome in high throughput screening using primary mouse hepatocytes (miBioAge)", "setting": "[1]", "result": "inactive molecules"}]}, {"smiles": "CN(C)C(=N)N=C(N)N", "note": "[Metformin]", "values": [{"measurement": "outcome in high throughput screening using primary mouse hepatocytes (miBioAge)", "setting": "[1]", "result": "positive controls"}]}, {"smiles": "C[C@]12CC[C@H](O)C[C@H]1CC[C@@H]1[C@@H]2CC[C@]2(C)[C@@H](C3=CC(=O)OC3)CC[C@]12O", "note": "[Digitoxigenin]", "values": [{"measurement": "Sox2 expression", "setting": "GBM2 cells [2]", "result": "reduce"}, {"measurement": "expression of the core transcription factors", "setting": "GBM2 cells [2]", "result": "downregulate"}, {"measurement": "Sall2 and Brn2 expression", "setting": "GBM2 cells [2]", "result": "significant reduction"}, {"measurement": "gene expression changes (GO terms) compared with those induced by serum or BMP4", "setting": "GBM2 cells [3]", "result": "markedly different"}, {"measurement": "Euclidean distance (FPKM, all expressed genes) of treated cells to serum or Bmp4 treated cells", "setting": "GBM2 cells [3]", "result": "Neither Digitoxigenin nor Digoxin reduced the distance"}]}, {"smiles": "O=C(O)C(Cc1c[nH]c2ccccc12)N1C(=O)c2ccccc2C1=O", "note": "(centres unmarked) [RG108]", "values": [{"measurement": "outcome in high throughput screening using primary mouse hepatocytes (miBioAge)", "setting": "[1]", "result": "inactive molecules"}]}, {"smiles": "NC(=O)c1ccc[n+]([C@@H]2O[C@H](CO)[C@@H](O)[C@H]2O)c1", "note": "[nicotinamide riboside]", "values": [{"measurement": "outcome in high throughput screening using primary mouse hepatocytes (miBioAge)", "setting": "[1]", "result": "inactive molecules"}]}, {"smiles": "C[C@]12CC[C@@H]3c4ccc(O)cc4CC[C@H]3[C@@H]1CC[C@@H]2O", "note": "[17 beta-estradiol]", "values": [{"measurement": "outcome in high throughput screening using primary mouse hepatocytes (miBioAge)", "setting": "[1]", "result": "positive controls"}]}, {"smiles": "CC(C)n1nc(-c2ccc3oc(N)nc3c2)c2c(N)ncnc21", "note": "[INK128]", "values": [{"measurement": "outcome in high throughput screening using primary mouse hepatocytes (miBioAge)", "setting": "[1]", "result": "hits to be tested in animal models"}]}, {"smiles": "Cn1c(=O)n(-c2ccc(C(C)(C)C#N)cc2)c2c3cc(-c4cnc5ccccc5c4)ccc3ncc21", "note": "[NVP-BEZ235]", "values": [{"measurement": "outcome in high throughput screening using primary mouse hepatocytes (miBioAge)", "setting": "[1]", "result": "hits to be tested in animal models"}]}, {"smiles": "C[C@H]1O[C@@H](O[C@H]2[C@@H](O)C[C@H](O[C@H]3[C@@H](O)C[C@H](O[C@H]4CC[C@@]5(C)[C@H](CC[C@@H]6[C@@H]5C[C@@H](O)[C@]5(C)[C@@H](C7=CC(=O)OC7)CC[C@]65O)C4)O[C@@H]3C)O[C@@H]2C)C[C@H](O)[C@@H]1O", "note": "[Digoxin]", "values": [{"measurement": "Sox2 expression", "setting": "GBM2 cells [2]", "result": "reduced"}, {"measurement": "expression of the core transcription factors", "setting": "GBM2 cells [2]", "result": "downregulate"}, {"measurement": "Sall2 and Brn2 expression", "setting": "GBM2 cells [2]", "result": "significant reduction"}, {"measurement": "gene expression changes (GO terms) compared with those induced by serum or BMP4", "setting": "GBM2 cells [3]", "result": "markedly different"}, {"measurement": "ranking by average Euclidean distance from serum- or Bmp4-treated cells (MIEL- and gene expression-based)", "setting": "GBM2 cells [3]", "result": "lowest-ranking candidate"}, {"measurement": "gene expression changes (GO terms) compared with those induced by serum or BMP4", "setting": "GBM2 cells [3]; listed as digoxin", "result": "rather different"}, {"measurement": "Euclidean distance (FPKM, all expressed genes) of treated cells to serum or Bmp4 treated cells", "setting": "GBM2 cells [3]", "result": "Neither Digitoxigenin nor Digoxin reduced the distance"}, {"measurement": "growth rate of drug-treated cells", "setting": "TPCs", "result": "stronger reduction; also recorded: cytostatic"}, {"measurement": "growth rate of drug-treated cells", "setting": "TPCs; listed as digoxin", "result": "cytostatic"}]}, {"smiles": "COc1cc([C@@H]2c3cc4c(cc3[C@@H](O[C@@H]3O[C@@H]5CO[C@@H](C)O[C@H]5[C@H](O)[C@H]3O)[C@H]3COC(=O)[C@H]23)OCO4)cc(OC)c1O", "note": "[etoposide]", "values": [{"measurement": "ranking by average Euclidean distance from serum- or Bmp4-treated cells (MIEL- and gene expression-based)", "setting": "GBM2 cells [3]", "result": "top candidate"}]}, {"smiles": "CC(Cc1ccc(O)c(O)c1)C(C)Cc1ccc(O)c(O)c1", "note": "(centres unmarked) [NDGA]", "values": [{"measurement": "outcome in high throughput screening using primary mouse hepatocytes (miBioAge)", "setting": "[1]", "result": "positive controls"}, {"measurement": "shift of epigenetic signature of old cells towards that of young cells", "setting": "[1]", "result": "Statistically significant dose-dependent shifts"}]}, {"smiles": "COc1ncc(-c2ccc3nccc(-c4ccnnc4)c3c2)cc1NS(=O)(=O)c1ccc(F)cc1F", "note": "[GSK2126458]", "values": [{"measurement": "outcome in high throughput screening using primary mouse hepatocytes (miBioAge)", "setting": "[1]", "result": "hits to be tested in animal models"}]}, {"smiles": "CC(=O)Oc1ccccc1C(=O)O", "note": "[aspirin]", "values": [{"measurement": "shift of epigenetic signature of old cells towards that of young cells", "setting": "[1]", "result": "Statistically significant dose-dependent shifts"}]}]}
